Patent publication US8901118B2, “Compounds and methods for kinase modulation, and indications therefor” (Plexxikon Inc., priority 2010, dated 2014)

What was measured:
BCR-FMS BaF3 cells = target: T1, BCR-FMS BaF3 cells (Homo sapiens, UniProt P07333); assay: BaF3 BCR-FMS cell proliferation assay (ATPlite); assay type: cell-based; conditions: read-out: Inhibition of Cell Proliferation IC50, BCR/BaF3 Fms
T1 construct: fused on or other part: P11274 (Breakpoint cluster region protein)
T1 sequence (P07333 582-910): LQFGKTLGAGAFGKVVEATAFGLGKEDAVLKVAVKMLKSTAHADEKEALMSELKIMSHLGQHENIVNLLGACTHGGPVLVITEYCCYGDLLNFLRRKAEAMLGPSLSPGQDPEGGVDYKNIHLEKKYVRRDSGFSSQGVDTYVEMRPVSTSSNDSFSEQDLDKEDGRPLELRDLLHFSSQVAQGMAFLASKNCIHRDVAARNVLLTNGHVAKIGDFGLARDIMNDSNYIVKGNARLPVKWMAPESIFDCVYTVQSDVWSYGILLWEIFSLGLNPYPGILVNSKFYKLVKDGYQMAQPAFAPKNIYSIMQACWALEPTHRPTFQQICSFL
In short: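 Cells are plated overnight: BaF3 at 10,000/well in G418 medium without WEHI/IL-3, MV-4-11 at 25,000/well in IMDM with 10% FBS. An 8-point 1:3 compound titration (10 μM top) is then added, and plates are incubated 3 days at 37 °C before ATPlite readout and IC50 determination.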

CYP3A4(BFC) = CYP3A4(BFC) (Homo sapiens, UniProt P08684); assay: CYP3A4(BFC) inhibition; assay type: in vitro ADME; conditions: CYP3A4, substrate BFC; read-out: Cyp IC50 3A4(BFC)
In short: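 This fluorescence assay tracks how test compounds reduce CYP3A4 turnover of BFC, with enzyme and substrate from BD Biosciences. A 10-point 1:1 dilution series in cofactor mix (1.3% NADPH Regeneration Solution A, 1.04% Solution B, 5% acetonitrile, 0.05% DMSO) was dispensed at 10 μL into 384 well plates, preincubated 10 minutes at 37° C, then incubated 30 min and read on a Tecan Safire 2.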

SKNSH cells = assay: SKNSH (human neuroblastoma) cell proliferation assay (ATPlite); assay type: cell-based; conditions: SK-N-SH, read-out: Inhibition of Cell Proliferation IC50, SKNSH
In short: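 Fms/Trk inhibitor efficacy was tested by proliferation of SKNSH neuroblastoma cells. After 3 days of compound exposure at 37° C. in 5% CO2, 20 μL per well of ATPlite 1 step reagent was added, plates sat 10 minutes at room temperature, and luminescence, proportional to cell number, was read on a Safire reader to derive IC50.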

Chain of CYP3A4(BFC) (P08684 whole entry): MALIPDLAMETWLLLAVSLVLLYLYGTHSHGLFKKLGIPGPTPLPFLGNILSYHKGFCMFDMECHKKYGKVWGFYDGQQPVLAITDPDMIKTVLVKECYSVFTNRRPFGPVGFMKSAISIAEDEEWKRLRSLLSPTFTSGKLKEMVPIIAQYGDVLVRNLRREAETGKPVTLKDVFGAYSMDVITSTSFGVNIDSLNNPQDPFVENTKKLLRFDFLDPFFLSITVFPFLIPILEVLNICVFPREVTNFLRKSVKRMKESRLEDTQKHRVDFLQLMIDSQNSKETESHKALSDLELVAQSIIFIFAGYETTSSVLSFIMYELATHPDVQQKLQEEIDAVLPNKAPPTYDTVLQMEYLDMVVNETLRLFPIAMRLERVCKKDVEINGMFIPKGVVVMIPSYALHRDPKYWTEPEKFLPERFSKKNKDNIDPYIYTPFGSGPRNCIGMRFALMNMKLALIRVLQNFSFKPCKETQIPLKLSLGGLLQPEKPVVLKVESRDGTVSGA

| Structure (SMILES) | IC50 (BCR-FMS BaF3 cells) | IC50 (CYP3A4(BFC)) | IC50 (SKNSH cells) |
| --- | --- | --- | --- |
| Clc1cnc2[nH]cc(Cc3cnc(NC4CCC4)nc3)c2c1 [Compound P-3007, [5-(5-Chloro-1H-pyrrolo[2,3-b]pyridin-3-ylmethyl)-pyrimidin-2-yl]-cyclobutyl-amine] | < 1000 nM |  |  |
| Cc1cnc2[nH]cc(Cc3ccc(NC4CCCCC4)nc3F)c2c1 [Compound P-3008, cyclohexyl-[6-fluoro-5-(5-methyl-1H-pyrrolo[2,3-b]pyridin-3-ylmethyl)-pyridin-2-yl]-amine] | < 100 nM | 5000 to 10000 nM |  |
| O=C(c1ccc(Nc2ccc(C3CC3)nc2)nc1F)c1c[nH]c2ncnc(C3CC3)c12 [Compound P-4040, [6-(6-Cyclopropyl-pyridin-3-ylamino)-2-fluoro-pyridin-3-yl]-(4-cyclopropyl-7H-pyrrolo[2,3-d]pyrimidin-5-yl)-methanone] | < 100 nM |  |  |
| Fc1nc(Nc2ccc(C3CC3)nc2)ccc1Cc1c[nH]c2ncnc(C3CC3)c12 [Compound P-4041, (6-Cyclopropyl-pyridin-3-yl)-[5-(4-cyclopropyl-7H-pyrrolo[2,3-d]pyrimidin-5-ylmethyl)-6-fluoro-pyridin-2-yl]-amine] | < 10 nM | > 10000 nM |  |
| Nc1ncnc2[nH]cc(C(=O)c3ccc(NC4CCC(F)(F)CC4)nc3Cl)c12 [Compound P-4046, (4-amino-7H-pyrrolo[2,3-d]pyrimidin-5-yl)-[2-chloro-6-[(4,4-difluorocyclohexyl)amino]-3-pyridyl]methanone] | < 100 nM |  | < 10000 nM |
| CC(C)=CNc1ncnc2[nH]cc(C(=O)c3ccc(NC4CCC(F)(F)CC4)nc3Cl)c12 [Compound P-4047, [2-chloro-6-[(4,4-difluorocyclohexyl)amino]-3-pyridyl]-[4-(2-methylprop-1-enylamino)-7H-pyrrolo[2,3-d]pyrimidin-5-yl]methanone] | > 1000 nM | > 10000 nM |  |
| Nc1ncnc2[nH]cc(C(=O)c3ccc(Nc4ccc(C5CC5)nc4)nc3F)c12 [Compound P-4048, (4-amino-7H-pyrrolo[2,3-d]pyrimidin-5-yl)-[6-[(6-cyclopropyl-3-pyridyl)amino]-2-fluoro-3-pyridyl]methanone] | < 10 nM | > 10000 nM | < 1000 nM |
| CC(C)(O)CNc1ncnc2[nH]cc(C(=O)c3ccc(Nc4ccc(C5CC5)nc4)nc3F)c12 [Compound P-4049, [6-[(6-cyclopropyl-3-pyridyl)amino]-2-fluoro-3-pyridyl]-[4-[(2-hydroxy-2-methyl-propyl)amino]-7H-pyrrolo[2,3-d]pyrimidin-5-yl]methanone] | < 1000 nM | > 10000 nM | < 1000 nM |
| CCNc1ncnc2[nH]cc(C(=O)c3ccc(NC4CCC(F)(F)CC4)nc3Cl)c12 [Compound P-4050, [2-chloro-6-[(4,4-difluorocyclohexyl)amino]-3-pyridyl]-[4-(ethylamino)-7H-pyrrolo[2,3-d]pyrimidin-5-yl]methanone] | < 1000 nM | > 10000 nM | < 1000 nM |
| CCNc1ncnc2[nH]cc(C(=O)c3cnc(NC4CCC(F)(F)CC4)c(F)c3)c12 [Compound P-4051, [6-[(4,4-difluorocyclohexyl)amino]-5-fluoro-3-pyridyl]-[4-(ethylamino)-7H-pyrrolo[2,3-d]pyrimidin-5-yl]methanone] | < 1000 nM | > 10000 nM | < 1000 nM |
| O=C(c1cnc(NC2CCC(F)(F)CC2)c(F)c1)c1c[nH]c2ncnc(NCC(F)(F)F)c12 [Compound P-4052, [6-[(4,4-difluorocyclohexyl)amino]-5-fluoro-3-pyridyl]-[4-(2,2,2-trifluoroethylamino)-7H-pyrrolo[2,3-d]pyrimidin-5-yl]methanone] | < 1000 nM | > 10000 nM | > 1000 nM |
| O=C(c1cnc(NC2CCC(F)(F)CC2)c(F)c1)c1c[nH]c2ncnc(NC3CC3)c12 [Compound P-4053, [4-(cyclopropylamino)-7H-pyrrolo[2,3-d]pyrimidin-5-yl]-[6-[(4,4-difluorocyclohexyl)amino]-5-fluoro-3-pyridyl]methanone] | < 1000 nM | > 10000 nM | < 1000 nM |
| CNc1ncnc2[nH]cc(C(=O)c3cnc(NC4CCC(F)(F)CC4)c(F)c3)c12 [Compound P-4054, [6-[(4,4-difluorocyclohexyl)amino]-5-fluoro-3-pyridyl]-[4-(methylamino)-7H-pyrrolo[2,3-d]pyrimidin-5-yl]methanone] | < 1000 nM | > 10000 nM | < 10000 nM |
